According to the supplement of paper PMC11061612:

Tests used:
Assay in all cases: Bliss excess, mean over the matrix (fraction); higher = more synergy
[1] = tested on: GCT (Other Solid Carcinomas)
In short: (§1)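 After 24 hours at 37°C and 5% CO2 in 1536-well plates, cells in DMEM/F12 or RPMI plus 10% FBS received two-drug dose matrices for 72 hours. Viability came from CellTiter-Glo 2.0 luminescence and was scaled as inhibition, anchored at 0 by vehicle wells and at 1 by blank wells. Combination Emax is taken as the second-highest inhibition in the matrix, and Bliss excess as the observed combination effect less EA + EB − EA·EB, with EA and EB the single-agent effects.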

[2] = tested on: JVM-2 (B-Cell Non-Hodgkin's Lymphoma)
In short: as §1

[3] = tested on: MHH-ES-1 (Ewing's Sarcoma)
In short: as §1

[4] = tested on: CESS (Acute Myeloid Leukemia)
In short: as §1

[5] = tested on: A253 (Head and Neck Carcinoma)
In short: as §1

[6] = tested on: 22RV1 (Prostate Carcinoma)
In short: as §1

[7] = tested on: CA46 (Burkitt's Lymphoma)
In short: as §1

[8] = tested on: LS-411N (Colorectal Carcinoma)
In short: as §1

[9] = tested on: G-402 (Other Solid Carcinomas)
In short: as §1

[10] = tested on: JIMT-1 (Breast Carcinoma)
In short: as §1

A101D (Melanoma) = tested on: A101D (Melanoma)
In short: as §1

AU565 (Breast Carcinoma) = tested on: AU565 (Breast Carcinoma)
In short: as §1

[11] = tested on: GA-10 (Burkitt's Lymphoma)
In short: as §1

[12] = tested on: ESO26 (Esophageal Adenocarcinoma)
In short: as §1

IM-9 (Non-Cancerous) = tested on: IM-9 (Non-Cancerous)
In short: as §1

EW-16 (Ewing's Sarcoma) = tested on: EW-16 (Ewing's Sarcoma)
In short: as §1

5637 (Bladder Carcinoma) = tested on: 5637 (Bladder Carcinoma)
In short: as §1

[13] = tested on: KYSE-140 (Esophageal Squamous Cell Carcinoma)
In short: as §1

[14] = tested on: HCC1395 (Breast Carcinoma)
In short: as §1

[15] = tested on: OACp4C (Esophageal Adenocarcinoma)
In short: as §1

Structure (SMILES) | Bliss excess [1] | Bliss excess [2] | Bliss excess [3] | Bliss excess [4] | Bliss excess [5] | Bliss excess [6] | Bliss excess [7] | Bliss excess [8] | Bliss excess [9] | Bliss excess [10] | Bliss excess (A101D (Melanoma)) | Bliss excess (AU565 (Breast Carcinoma)) | Bliss excess [11] | Bliss excess [12] | Bliss excess (IM-9 (Non-Cancerous)) | Bliss excess (EW-16 (Ewing's Sarcoma)) | Bliss excess (5637 (Bladder Carcinoma)) | Bliss excess [13] | Bliss excess [14] | Bliss excess [15]
COc1cccc(OCCCN)c1-c1cc(Nc2cnc(C#N)cn2)n[nH]1 [Prexasertib] + O=C(c1cc(Cc2n[nH]c(=O)c3ccccc23)ccc1F)N1CCN(C(=O)C2CC2)CC1 [Olaparib] (first compound max 1 µM, 7x7, partner max 10 µM) | 0.0068 | 0.0213 | 0.0048 | -0.0511 | -0.0617 | -0.072 | -0.192 | -0.271 | -0.0572 | -0.0182 | -0.0549 | -0.0097 | -0.0649 | -0.0191 | 0.0046 | 0.0036 | -0.0729 | -0.152 | -0.0368 | -0.0222
Cn1cnc2c(F)c(Nc3ccc(Br)cc3Cl)c(C(=O)NOCCO)cc21 [Selumetinib] + CCN(CCO)CCCOc1ccc2c(Nc3cc(CC(=O)Nc4cccc(F)c4)[nH]n3)ncnc2c1 [AZD2811] (first compound max 10 µM, 7x7, partner max 1 µM) | -0.0185 | 0.0315 | -0.0268 | 0.0943 | -0.018 | -0.0797 | -0.0093 | -0.0115 | -0.0137 | -0.0403 | -0.0718 | -0.0167 | -0.0559 | -0.0374 | -0.032 | -0.0221 | 0.0276 | -0.0554 | -0.008 | 0.0193
Cn1cnc2c(F)c(Nc3ccc(Br)cc3Cl)c(C(=O)NOCCO)cc21 [Selumetinib] + C[C@@H]1COCCN1C2=NC(=NC(=C2)C3(CC3)[S@](=N)(=O)C)C4=C5C=CNC5=NC=C4 [AZD6738] (first compound max 10 µM, 7x7, partner max 10 µM) | 0.0294 | -0.0344 | -0.046 | -0.0205 | -0.0229 | 0.0144 | -0.0159 | -0.0195 | -0.0353 | -0.0853 | -0.0548 | -0.0014 | -0.0046 | -0.0189 | -0.0817 | -0.0914 | 0.0382 | -0.0888 | -0.0128 | -0.0052
COc1cccc2c1C(=O)c1c(O)c3c(c(O)c1C2=O)C[C@@](O)(C(=O)CO)C[C@@H]3O[C@H]1C[C@H](N)[C@H](O)[C@H](C)O1 [Doxorubicin] + Cc1cc2ncnn2cc1Nc1ncc2c(n1)n(C1CCOCC1)c(=O)n2C [AZD7648] (first compound max 1 µM, 7x7, partner max 10 µM) | 0.0589 | 0.071 | 0.0697 | 0.11 | 0.108 | -0.0351 | 0.0813 | 0.0365 | 0.0446 | 0.0514 | 0.0232 | 0.0753 | 0.0964 | 0.032 | 0.127 | 0.0933 | 0.0902 | 0.05 | -0.0234 | 0.0636
CN(C)CCCOc1ccc(-c2ccc3ncc4c(c3c2)n(C2CCOCC2)c(=O)n4C)cn1 [AZD0156] + O=C(c1cc(Cc2n[nH]c(=O)c3ccccc23)ccc1F)N1CCN(C(=O)C2CC2)CC1 [Olaparib] (first compound max 3 µM, partner max 3 µM) | 0.0068 | 0.0457 | 0.148 | 0.075 | 0.0536 | 0.0313 | 0.0156 | 0.0922 | 0.0571 | -0.0233 | 0.134 | 0.0442 | 0.131 | -0.0039 | 0.275 | 0.0975 | 0.138 | -0.0069 | 0.0515 | -0.0005
CN(C)CCCOc1ccc(-c2ccc3ncc4c(c3c2)n(C2CCOCC2)c(=O)n4C)cn1 [AZD0156] + CCN(CCO)CCCOc1ccc2c(Nc3cc(CC(=O)Nc4cccc(F)c4)[nH]n3)ncnc2c1 [AZD2811] (first compound max 1 µM, 7x7, partner max 1 µM) | -0.0126 | 0.0105 | 0.0376 | 0.0178 | -0.0119 | -0.0279 | 0.0059 | -0.0168 | -0.0111 | -0.0181 | -0.0198 | 0.0021 | 0.0158 | -0.037 | -0.0416 | 0.0083 | 0.0043 | 0.025 | -0.0936 | 0.0091
Cc1c2c(nn1C)CSCc1cc(n(C)n1)CSc1cc(c3ccccc3c1)OCCCc1c(C(=O)O)n(C)c3c-2c(Cl)ccc13 [AZD5991] + CC1(C)CCC(CN2CCN(c3ccc(C(=O)NS(=O)(=O)c4ccc(NCC5CCOCC5)c([N+](=O)[O-])c4)c(Oc4cnc5[nH]ccc5c4)c3)CC2)=C(c2ccc(Cl)cc2)C1 [Venetoclax] (first compound max 1 µM, 7x7, partner max 1 µM) | -0.0272 | 0.0109 | 0.0733 | 0.0276 | 0.0088 | -0.0149 | -0.02 | 0 | -0.0461 | -0.0155 | 0.0076 | 0.0115 | -0.0658 | -0.0209 | 0.218 | -0.0326 | -0.0474 | 0.0154 | -0.019 | 0.13
